In test [1] the target is T1, PglH (Campylobacter jejuni, UniProt Q0P9C5).
T1 construct: PglH with C-terminal His10 tag
In words: ([…] Å); IC50 with purified PglH. The format is biochemical.

Test [2] deals with T1, PglH. In words: crystal structure of ternary complex with synthetic LLO ([…] Å); IC50 with purified PglH. The test is classed as biochemical.

Usually IC50 stands for the midpoint of a concentration-inhibition curve. Read a low IC50 as inhibition by little substance.

T1 sequence (Q0P9C5 whole entry): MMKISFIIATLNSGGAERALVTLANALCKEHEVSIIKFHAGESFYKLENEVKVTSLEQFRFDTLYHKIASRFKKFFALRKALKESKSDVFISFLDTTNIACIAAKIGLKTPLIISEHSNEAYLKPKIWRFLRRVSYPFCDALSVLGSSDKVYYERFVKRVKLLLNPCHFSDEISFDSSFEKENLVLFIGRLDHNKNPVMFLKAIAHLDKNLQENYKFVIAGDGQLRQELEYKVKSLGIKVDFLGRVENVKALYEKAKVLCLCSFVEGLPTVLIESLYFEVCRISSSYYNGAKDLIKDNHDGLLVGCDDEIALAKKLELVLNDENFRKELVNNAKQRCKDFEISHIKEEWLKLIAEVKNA

Turning to `CC(=O)N[C@@H]1[C@@H](O)[C@@H](O)[C@@H](CO)O[C@@H]1CP(=O)(O)OP(=O)(O)OC[C@@H]1O[C@@H](n2ccc(=O)[nH]c2=O)[C@H](O)[C@@H]1O` [UDP-CH2-GalNAc], at PglH [1], the IC50 was 303 ± 24 µM.

Take `O=c1ccn([C@@H]2O[C@H](COP(=O)(O)OP(=O)(O)O)[C@@H](O)[C@H]2O)c(=O)[nH]1` [UDP]: the IC50 against PglH [2] was 1020 ± 87 µM.

The record behind these values is publication PMC5792488, “Structural basis of the molecular ruler mechanism of a bacterial glycosyltransferase” (Nature Communications, 2018).
